How the values were obtained:
[1] = molecular target: T1, PI3K alpha (Homo sapiens, UniProt P42336); test: PI3K alpha kinase assay (Kinase-Glo luminescence); assay type: biochemical
T1 construct: p85(iSH2) fusion partner (see partner chain) (N); His tag (C); made in house; host or cells: baculovirus; Tn5 (Trichoplusia ni) or TiniPro insect cells
Procedure, shortened: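 PI3K alpha at 10 nM with 1 μM ATP and 10 μg/mL phosphatidylinositol in 10 mM TRIS pH 7.5, 3 mM MgCl2, 50 mM NaCl, 0.05% CHAPS, 1 mM DTT, 60 min at room temperature. Remaining ATP read by Kinase-Glo luminescence. IC50 by 4-parameter fit over 8 concentrations.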

[2] = system: PKB Ser473 phosphorylation in Rat1-myr-HA-p110 beta cells; test: Reverse protein array assay, PKB Ser473 phosphorylation in Rat1-myr-p110 beta cells; assay type: cell-based; conditions: 0.5 h, pAkt Ser473, 30 minutes incubation, read-out: p-PKB IC50
Procedure, shortened: (§1)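 Rat1 cells expressing myristoylated HA-tagged p110 alpha, beta or delta were plated for at least 20 h, then exposed to 8-step serial compound dilutions (0.2% DMSO final) for 30 min at 37 °C. Lysates were spotted at four dilutions on protein microarrays, and relative fluorescence intensity of phospho-Ser473 PKB was calculated.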

[3] = molecular target: T2, PI3K beta (Homo sapiens, UniProt P42338); test: PI3K beta kinase assay (Kinase-Glo luminescence); assay type: biochemical
T2 construct: for the full-length p110-b subunit are generated and fused by overlapping PCR; p85(iSH2) fusion partner (see partner chain) (N); His tag (C); made in house; host or cells: baculovirus; Tn5 (Trichoplusia ni) or TiniPro insect cells
Procedure, shortened: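 Residual ATP after a 60 min room-temperature reaction is quantified by Kinase-Glo luminescence. Enzyme: 25 nM BV-949 (p85 iSH2–linker–full-length p110β); substrates 1 μM ATP, 10 μg/mL PI; buffer Tris pH 7.5, MgCl2, NaCl, CHAPS, DTT. Eight concentrations per compound, four-parameter logistic IC50.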

[4] = system: PKB Ser473 phosphorylation in Rat1-myr-HA-p110 delta cells; test: Reverse protein array assay, PKB Ser473 phosphorylation in Rat1-myr-p110 delta cells; assay type: cell-based; conditions: read-out: p-PKB IC50
Procedure, shortened: as §1

T2 sequence (P42338 with tags, fused parts or gaps limits assumed): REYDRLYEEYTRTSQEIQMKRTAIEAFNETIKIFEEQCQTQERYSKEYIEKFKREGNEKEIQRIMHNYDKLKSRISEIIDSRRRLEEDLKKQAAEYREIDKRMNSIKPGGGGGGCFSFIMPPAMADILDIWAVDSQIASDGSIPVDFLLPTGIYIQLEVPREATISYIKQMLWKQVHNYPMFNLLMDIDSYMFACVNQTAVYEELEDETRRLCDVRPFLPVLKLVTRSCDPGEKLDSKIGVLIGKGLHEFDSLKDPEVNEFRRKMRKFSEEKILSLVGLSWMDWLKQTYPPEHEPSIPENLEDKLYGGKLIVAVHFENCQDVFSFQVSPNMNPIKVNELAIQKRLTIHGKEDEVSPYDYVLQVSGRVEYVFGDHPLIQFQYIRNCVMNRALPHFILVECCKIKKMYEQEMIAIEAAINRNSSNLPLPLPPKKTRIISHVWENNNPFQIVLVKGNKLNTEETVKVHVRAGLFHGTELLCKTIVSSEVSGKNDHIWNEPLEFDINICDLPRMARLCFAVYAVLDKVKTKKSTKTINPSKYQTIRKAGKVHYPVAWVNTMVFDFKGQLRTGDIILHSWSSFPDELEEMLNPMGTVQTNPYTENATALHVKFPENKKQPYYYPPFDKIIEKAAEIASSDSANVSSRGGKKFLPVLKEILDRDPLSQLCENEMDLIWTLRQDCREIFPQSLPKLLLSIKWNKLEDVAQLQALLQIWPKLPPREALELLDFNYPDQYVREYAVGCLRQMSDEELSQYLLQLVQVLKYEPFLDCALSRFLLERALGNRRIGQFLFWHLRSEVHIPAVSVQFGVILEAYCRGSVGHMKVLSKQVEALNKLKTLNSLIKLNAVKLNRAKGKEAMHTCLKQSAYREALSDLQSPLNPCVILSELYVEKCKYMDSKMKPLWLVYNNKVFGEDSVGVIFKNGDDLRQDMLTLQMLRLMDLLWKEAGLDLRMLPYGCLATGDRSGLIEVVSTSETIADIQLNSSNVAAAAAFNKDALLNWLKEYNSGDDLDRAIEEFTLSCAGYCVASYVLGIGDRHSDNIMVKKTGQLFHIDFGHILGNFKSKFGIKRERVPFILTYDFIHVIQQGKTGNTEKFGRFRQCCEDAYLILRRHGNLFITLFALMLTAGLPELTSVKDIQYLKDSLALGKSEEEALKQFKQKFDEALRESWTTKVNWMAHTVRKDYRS
T1 sequence (P42336 with tags, fused parts or gaps limits assumed): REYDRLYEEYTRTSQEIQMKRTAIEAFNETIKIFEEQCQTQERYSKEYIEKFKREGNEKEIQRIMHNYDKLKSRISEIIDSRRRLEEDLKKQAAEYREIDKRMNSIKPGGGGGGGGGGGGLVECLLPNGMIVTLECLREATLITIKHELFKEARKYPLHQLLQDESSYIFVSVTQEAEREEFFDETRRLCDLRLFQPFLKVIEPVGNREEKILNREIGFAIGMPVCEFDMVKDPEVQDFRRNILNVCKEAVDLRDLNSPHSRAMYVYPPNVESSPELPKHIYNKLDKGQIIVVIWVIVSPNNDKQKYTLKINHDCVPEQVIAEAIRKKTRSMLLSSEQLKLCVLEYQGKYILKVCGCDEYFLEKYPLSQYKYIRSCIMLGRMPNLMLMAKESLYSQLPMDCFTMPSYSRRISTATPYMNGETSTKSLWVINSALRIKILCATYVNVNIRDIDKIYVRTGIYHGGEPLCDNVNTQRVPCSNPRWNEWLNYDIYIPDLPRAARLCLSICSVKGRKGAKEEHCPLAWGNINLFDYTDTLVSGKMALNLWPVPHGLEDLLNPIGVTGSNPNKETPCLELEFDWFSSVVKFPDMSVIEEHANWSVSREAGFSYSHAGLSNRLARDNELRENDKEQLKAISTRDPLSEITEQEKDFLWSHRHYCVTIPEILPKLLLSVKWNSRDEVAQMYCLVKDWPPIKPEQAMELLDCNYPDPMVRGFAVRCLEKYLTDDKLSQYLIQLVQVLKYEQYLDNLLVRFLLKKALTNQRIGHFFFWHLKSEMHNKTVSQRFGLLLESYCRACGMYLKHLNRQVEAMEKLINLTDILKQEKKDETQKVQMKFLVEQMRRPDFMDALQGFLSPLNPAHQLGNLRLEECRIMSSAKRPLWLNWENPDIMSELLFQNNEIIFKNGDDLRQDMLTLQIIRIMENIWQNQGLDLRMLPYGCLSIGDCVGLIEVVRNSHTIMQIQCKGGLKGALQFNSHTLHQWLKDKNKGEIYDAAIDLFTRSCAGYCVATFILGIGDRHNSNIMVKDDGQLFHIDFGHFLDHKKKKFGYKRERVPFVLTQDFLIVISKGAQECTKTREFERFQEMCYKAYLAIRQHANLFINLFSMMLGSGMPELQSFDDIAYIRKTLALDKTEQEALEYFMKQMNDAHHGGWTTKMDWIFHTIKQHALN

| Structure (SMILES) | IC50 [1] | IC50 [2] | IC50 [3] | IC50 [4] |
| --- | --- | --- | --- | --- |
| Cc1nn(C(C)C)cc1-n1c(=O)n(C)c2cnc3ccc(-c4cnc5c(c4)COC(=O)N5C)cc3c21 [Example 170, 1-(1-Isopropyl-3-methyl-1H-pyrazol-4-yl)-3-methyl-8-(1-methyl-2-oxo-1,4-dihydro-2H-pyrido[2,3-d][1,3]oxazin-6-yl)-1,3-dihydro-imidazo[4,5-c]quinolin-2-one] | 55 nM | 370 nM | 395 nM | 607 nM |
| Cc1nn(C)cc1-n1c(=O)n(C)c2cnc3ccc(-c4cncc(N(C)C5CCC5)c4)cc3c21 [Example 174, 8-[5-(Cyclobutyl-methyl-amino)-pyridin-3-yl]-1-(1,3-dimethyl-1H-pyrazol-4-yl)-3-methyl-1,3-dihydro-imidazo[4,5-c]quinolin-2-one] | 17 nM | 10 nM | 36 nM | 12 nM |
| [2H]C([2H])([2H])OCc1ncc(-c2ccc3ncc4c(c3c2)n(-c2cn(C)nc2C)c(=O)n4C)cc1OCC [Example 198, 1-(1,3-Dimethyl-1H-pyrazol-4-yl)-8-(5-ethoxy-6-trideuteromethoxymethyl-pyridin-3-yl)-3-methyl-1,3-dihydro-imidazo[4,5-c]quinolin-2-one] | 17 nM | 37 nM | 32 nM | 89 nM |
| CCNC(=O)c1cc(-c2ccc3ncc4c(c3c2)n(-c2cn(C(C)C)nc2C)c(=O)n4C)cnc1N [Example 227, 2-Amino-N-ethyl-5-[1-(1-isopropyl-3-methyl-1H-pyrazol-4-yl)-3-methyl-2-oxo-2,3-dihydro-1H-imidazo[4,5-c]quinolin-8-yl]-nicotinamide] | 71 nM | 220 nM | 287 nM | 240 nM |
| CNc1ccc(-c2ccc3ncc4c(c3c2)n(-c2cn(C(C)C)nc2C)c(=S)n4C)cn1 [Example 241, 1-(1-isopropyl-3-methyl-1H-pyrazol-4-yl)-3-methyl-8-(6-(methylamino)pyridin-3-yl)-1H-imidazo[4,5-c]quinoline-2(3H)-thione] | 18 nM | < 5 nM | 184 nM | 9 nM |
| CCn1cc(-n2c(=O)n(C)c3cnc4ccc(-c5ccc(OC)c(OC)c5)nc4c32)c(C)n1 [Example 254, 8-(3,4-Dimethoxy-phenyl)-1-(1-ethyl-3-methyl-1H-pyrazol-4-yl)-3-methyl-1,3-dihydro-1,3,5,9-tetraaza-cyclopenta[a]naphthalen-2-one] | 11 nM | 26 nM | 62 nM | 116 nM |

Continued, values first:

| IC50 [1] | IC50 [2] | IC50 [3] | IC50 [4] | Structure (SMILES) |
| --- | --- | --- | --- | --- |
| 9 nM | 11 nM | 10 nM | 11 nM | CCOCc1cc(-c2ccc3ncc4c(c3c2)n(-c2cn(C)nc2Cl)c(=O)n4C)cnc1N [Example 166.4, 8-(6-Amino-5-ethoxymethyl-pyridin-3-yl)-1-(3-chloro-1-methyl-1H-pyrazol-4-yl)-3-methyl-1,3-dihydro-imidazo[4,5-c]quinolin-2-one] |
| 11 nM | 88 nM | 56 nM | 158 nM | Cc1cc(-n2c(=O)n(C)c3cnc4ccc(-c5cnc(C)c(O)c5)cc4c32)n(C)n1 [Example 185.2, 1-(2,5-Dimethyl-2H-pyrazol-3-yl)-8-(5-hydroxy-6-methyl-pyridin-3-yl)-3-methyl-1,3-dihydro-imidazo[4,5-c]quinolin-2-one] |
| 10 nM | 32 nM | 41 nM | 45 nM | CCn1cc(-n2c(=O)n(C)c3cnc4ccc(-c5cncc(C(C)(C)C#N)c5)cc4c32)c(C)n1 [Example 220.2, 2-{5-[1-(1-Ethyl-3-methyl-1H-pyrazol-4-yl)-3-methyl-2-oxo-2,3-dihydro-1H-imidazo[4,5-c]quinolin-8-yl]-pyridin-3-yl}-2-methyl-propionitrile] |
| 64 nM | 59 nM | 359 nM | 119 nM | COc1ncc(-c2ccc3ncc4c(c3c2)n(-c2cc(C)nn2C)c(=O)n4C)c(OC)n1 [Example 234.4, 8-(2,4-Dimethoxy-pyrimidin-5-yl)-1-(2,5-dimethyl-2H-pyrazol-3-yl)-3-methyl-1,3-dihydro-imidazo[4,5-c]quinolin-2-one] |
